According to the NIST ThermoML archive (doi:10.1021/je400968v):

Assay: mn = molality of the nth substance listed, in mol/kg
Conditions: 101 kPa, Liquid; for viscosity: Capillary tube (Ostwald / Ubbelohde) method; for mass density: Vibrating tube method

Cc1ccc(N)cc1N [4-methyl-1,3-benzendiamine] + CCO
Conditions	mass density, 293.15 K [kg/m3]	mass density, 303.15 K [kg/m3]	mass density, 313.15 K [kg/m3]	mass density, 323.15 K [kg/m3]	mass density, 333.15 K [kg/m3]	viscosity, 293.15 K [mPa·s]	viscosity, 303.15 K [mPa·s]	viscosity, 313.15 K [mPa·s]	viscosity, 323.15 K [mPa·s]	viscosity, 333.15 K [mPa·s]
m1 = 0.0503	791.4	782.79	774	765.08	755.96	1.196	0.982	0.815	0.68	0.571
m1 = 0.0999	793.18	784.54	775.74	766.82	757.7	1.208	0.995	0.821	0.685	0.576
m1 = 0.1497	794.92	786.27	777.46	768.52	759.41	1.224	1.004	0.829	0.691	0.579
m1 = 0.1994	796.64	787.95	779.14	770.21	761.1	1.236	1.015	0.836	0.696	0.583
m1 = 0.2494	798.32	789.63	780.81	771.88	762.76	1.252	1.027	0.845	0.703	0.588
m1 = 0.2997	799.96	791.27	782.46	773.52	764.42	1.265	1.037	0.853	0.708	0.592
m1 = 0.3496	801.58	792.88	784.07	775.13	766.03	1.28	1.046	0.861	0.714	0.597
m1 = 0.3994	803.15	794.44	785.66	776.73	767.62	1.293	1.059	0.868	0.72	0.601
m1 = 0.4496	804.71	796.01	787.24	778.31	769.19	1.31	1.068	0.877	0.727	0.607
m1 = 0.4995	806.25	797.53	788.77	779.84	770.7	1.323	1.079	0.883	0.731	0.61
m1 = 0.5492	807.75	799.06	790.28	781.37	772.2	1.34	1.09	0.893	0.739	0.616
m1 = 0.5989	809.18	800.53	791.76	782.81	773.66	1.353	1.101	0.899	0.743	0.619
